Test results published in publication PMC9539280 (Advanced Science, 2022).

Key:
[1] = test system: hEHTs (human engineered heart tissues)
[2] = test system: hCMs (human pluripotent stem cell-derived cardiomyocytes); assay: Cytotoxicity assay, calcein-AM/PI double staining, relative cell viability; format: cell-based; conditions: 6 days, escalating concentrations (0.03-3 or 1-30 × 10^−6 M), calcein-AM/PI
Protocol: hCMs were dissociated with 0.25% trypsin/EDTA (25200072, Gibco) and then seeded into 384‐well plates at the density of 8 × 10^3 cells per well. 24 h after seeding, cells were exposed to the drugs at the indicated concentrations for 6 days. Culture media were fully changed every 3 days with new drug supplementation. After drug treatment, cells were stained with calcein‐AM/PI/Hoechst for 20 min using calcein‐AM/PI double staining kit (C542, DOJINDO). Images were captured by the Operetta CLS High‐Content Analysis System (PerkinElmer). Number of live cells (calcein‐AM+/PI‐) and dead cells (PI+) was quantified by using the Harmony 4.9 software (PerkinElmer). Number of live cells was used to calculate the “relative cell viability” as follows (1) relarivecellviability=numberoflivecellsineachtreatment/numberoflivecellsinDMSOcontrol×100%

hCMs [3] = test system: hCMs
[4] = test system: hEHTs (human engineered heart tissues); remark: listed apart in the source
[5] = in vivo; cited from earlier work
hCMs [6] = test system: hCMs; remark: listed apart in the source
hCMs [7] = test system: hCMs; remark: listed apart in the source
hCMs [8] = test system: hCMs; remark: listed apart in the source

Cc1cccc(/C=N/Nc2cc(N3CCOCC3)nc(OCCc3ccccn3)n2)c1 [Apilimod, apilimod]
toxicity to hEHTs [1]: toxic to hEHTs | cell viability of hCMs [2]: dose‐dependent decrease | sarcomere organization of hCMs (hCMs [3]): sarcomeric disarray | abnormal beating of hEHTs (spontaneous contractility) [4]: more severe | contractile force of hEHTs [4]: much lower | hEHT function (tissue level cardiotoxicity) [4]: weaken hEHT function | passive force of hEHTs [4]: increases of the passive force | Cmax [5]: 270 nM | intracellular calcium handling properties of hCMs (hCMs [6]): impair | apoptosis of hCMs (TUNEL) (hCMs [7]): increased apoptosis | calcium transient amplitude (hCMs [8]): without apparently affecting | time to 50% decay of the calcium transients (hCMs [8]): increased | time to peak of the calcium transients (hCMs [8]): increased
